Converted amounts (≈) assume the structure as drawn. Like-named read-outs stand apart in the source and are kept apart here.
Columns and labels:
[1] = system: Enterobacter cloacae SBJ-9395; type: cell-based
Source text: (§1) The same MIC assay as in Example 6 was used to determine the antimicrobial susceptibility of Compound A, L-form (FIG. 15), and several variants. One variant was Compound A, D-form, with D-Lysine at position 7. Compound B is a variant in the fatty acid chain, with a fatty acid chain composition of C15H29O, and having D-Lys at position 7. Compound C is a variant in the fatty acid chain with a fatty acid chain composition of C11H21O, and having D-Lys at position 7. Variant D is a sequence variant with Phe at position 6 of the cyclic peptide, and having D-Lys at position 7. All variants were chemically synthesized.

[2] = system: Serratia marcescens SAMN 04276914; type: cell-based; details: Serratia marcescens SAMN 04276914
Source text: as §1

[3] = system: Serratia marcescens SAMN 04276915; type: cell-based; details: Serratia marcescens SAMN 04276915
Source text: as §1

[4] = system: Serratia marcescens SAMN04022954; type: cell-based; details: Serratia marcescens SAMN04022954
Source text: as §1

[5] = system: Serratia marcescens SBJ-8283; type: cell-based
Source text: as §1

[6] = system: Serratia marcescens SBJ-9047; type: cell-based
Source text: as §1

[7] = system: Salmonella enterica serovar Montevideo strain 29N; assay: Spot-on-lawn bioactivity assay (zone of inhibition); type: cell-based; details: 10 μL spotted on lawn of 10^6 cells of S. Montevideo strain 29N, 24 hour incubation
E. coli ATCC 25853 = details: E. coli ATCC 25853
Salmonella Newport #17 = details: Salmonella Newport #17
[8] = system: Enterobacter sakazakii E784; details: Enterobacter sakazakii E784
[9] = system: Klebsiella pneumoniae SBJ-9149; details: Klebsiella pneumoniae SBJ-9149 (clinical isolate)
[10] = system: Enterobacter cloacae SBJ-7612; details: Enterobacter cloacae SBJ-7612 (clinical isolate)
[11] = system: Klebsiella pneumoniae SBJ-9483; details: Klebsiella pneumoniae SBJ-9483 (clinical isolate)
[12] = system: Klebsiella pneumoniae SBJ-9388; details: Klebsiella pneumoniae SBJ-9388 (clinical isolate)
[13] = system: Enterobacter cloacae SBJ-9222; details: Enterobacter cloacae SBJ-9222 (clinical isolate)
P. aeruginosa ATCC-27853 = details: P. aeruginosa ATCC-27853
S. aureus 10 = assay: microbe, parasite or virus in culture; type: cell-based, Staphylococcus aureus
Source text: as §1

S. aureus 12 = assay: microbe, parasite or virus in culture; type: cell-based, Staphylococcus aureus
Source text: as §1

S. aureus 14 = assay: microbe, parasite or virus in culture; type: cell-based, Staphylococcus aureus
Source text: as §1

S. aureus 19 = assay: microbe, parasite or virus in culture; type: cell-based, Staphylococcus aureus
Source text: as §1

S. aureus 2 = assay: microbe, parasite or virus in culture; type: cell-based, Staphylococcus aureus
Source text: as §1

S. aureus 4 = assay: microbe, parasite or virus in culture; type: cell-based, Staphylococcus aureus
Source text: as §1

S. aureus 6 = assay: microbe, parasite or virus in culture; type: cell-based, Staphylococcus aureus
Source text: as §1

S. aureus 8 = assay: microbe, parasite or virus in culture; type: cell-based, Staphylococcus aureus
Source text: as §1

E. faecium ATCC 2320 = assay: microbe, parasite or virus in culture; type: cell-based; details: Enterococcus faecium, ATCC2320
Source text: as §1

E. faecium ATCC 700221 = assay: microbe, parasite or virus in culture; type: cell-based; details: Enterococcus faecium, ATCC700221
Source text: as §1

E. faecium BAA-2318 = assay: microbe, parasite or virus in culture; type: cell-based; details: Enterococcus faecium, BAA2318
Source text: as §1

E. faecalis ATCC 51575 = assay: microbe, parasite or virus in culture; type: cell-based, Enterococcus faecalis; details: Enterococcus faecalis, ATCC51575
Source text: as §1

E. faecalis BAA-2365 = assay: microbe, parasite or virus in culture; type: cell-based, Enterococcus faecalis; details: Enterococcus faecalis, BAA2365
Source text: as §1

E. faecalis ATCC 29212 = assay: microbe, parasite or virus in culture; details: Enterococcus faecalis, ATCC29212
[14] = system: Listeria monocytogenes R2-583; assay: microbe, parasite or virus in culture; details: R2583
S. aureus ATCC25923 = assay: microbe, parasite or virus in culture; details: Staphylococcus aureus
S. aureus ATCC 29213 = assay: microbe, parasite or virus in culture; details: Staphylococcus aureus, ATCC29213

Polymyxin B [reference compound] was tested, and the MIC ([1]; Enterobacter cloacae SBJ-9395) was >128 µg/mL, the MIC ([1]; Enterobacter cloacae SBJ-9395 (CRE, clinical isolate)) was >128 µg/mL and the MIC [2] was ≥256 µg/mL. The MIC [3] was ≥256 µg/mL, the MIC [4] was ≥256 µg/mL and the MIC ([5]; Serratia marcescens SBJ-8283) was >128 µg/mL. The MIC ([5]; Serratia marcescens SBJ-8283 (CRE, clinical isolate)) was >128 µg/mL, the MIC ([6]; Serratia marcescens SBJ-9047) was >128 µg/mL and the MIC ([6]; Serratia marcescens SBJ-9047 (CRE, clinical isolate)) was >128 µg/mL. For the same compound, the “minimum inhibitory concentration to show clear ZI” value [7] was 4 µg/mL, the MIC (E. coli ATCC 25853) was 0.5 µg/mL and the MIC (Salmonella Newport #17) was 1 µg/mL. It also gave an MIC [8] of 0.5 µg/mL, an MIC (E. coli O157: H7 EDL933) of 0.5 µg/mL and an MIC [9] of 0.5 µg/mL. It also gave an MIC [10] of 1 µg/mL, an MIC [11] of 0.5 µg/mL and an MIC [12] of 0.5 µg/mL. The MIC [13] was 1 µg/mL and the MIC (P. aeruginosa ATCC-27853) was 1 µg/mL.
`CN[C@H](CC(C)C)C(=O)N[C@H]1C(=O)N[C@@H](CC(N)=O)C(=O)N[C@H]2C(=O)N[C@H]3C(=O)N[C@H](C(=O)N[C@H](C(=O)O)c4cc(O)cc(O)c4-c4cc3ccc4O)[C@H](O)c3ccc(c(Cl)c3)Oc3cc2cc(c3O[C@@H]2O[C@H](CO)[C@@H](O)[C@H](O)[C@H]2O[C@H]2C[C@](C)(N)[C@H](O)[C@H](C)O2)Oc2ccc(cc2Cl)[C@H]1O` [Vancomycin, vancomycin, reference compound] showed an MIC (S. aureus 10; S. aureus 10 (MRSA, clinical isolate)) of 1 µg/mL (≈ 0.69 µM), an MIC (S. aureus 10; Staphylococcus aureus, MRSA) of 1 µg/mL (≈ 0.69 µM) and an MIC (S. aureus 12; S. aureus 12 (MRSA, clinical isolate)) of 1 µg/mL (≈ 0.69 µM). It also gave an MIC (S. aureus 12; Staphylococcus aureus, MRSA) of 1 µg/mL (≈ 0.69 µM), an MIC (S. aureus 14; S. aureus 14 (MRSA, clinical isolate)) of 1 µg/mL (≈ 0.69 µM) and an MIC (S. aureus 14; Staphylococcus aureus, MRSA) of 1 µg/mL (≈ 0.69 µM). The MIC (S. aureus 19; S. aureus 19 (MRSA, clinical isolate)) was 1 µg/mL (≈ 0.69 µM), the MIC (S. aureus 19; Staphylococcus aureus, MRSA) was 1 µg/mL (≈ 0.69 µM) and the MIC (S. aureus 2; S. aureus 2 (MRSA, clinical isolate)) was 1 µg/mL (≈ 0.69 µM). It also gave an MIC (S. aureus 2; Staphylococcus aureus, MRSA) of 1 µg/mL (≈ 0.69 µM), an MIC (S. aureus 4; S. aureus 4 (MRSA, clinical isolate)) of 1 µg/mL (≈ 0.69 µM) and an MIC (S. aureus 4; Staphylococcus aureus, MRSA) of 1 µg/mL (≈ 0.69 µM). It also gave an MIC (S. aureus 6; S. aureus 6 (MRSA, clinical isolate)) of 1 µg/mL (≈ 0.69 µM), an MIC (S. aureus 6; Staphylococcus aureus, MRSA) of 1 µg/mL (≈ 0.69 µM) and an MIC (S. aureus 8; S. aureus 8 (MRSA, clinical isolate)) of 1 µg/mL (≈ 0.69 µM). For the same compound, the MIC (S. aureus 8; Staphylococcus aureus, MRSA) was 1 µg/mL (≈ 0.69 µM), the MIC (E. faecium ATCC 2320) was ≥ 256 µg/mL and the MIC (E. faecium ATCC 700221) was ≥ 256 µg/mL. For the same compound, the MIC (E. faecium BAA-2318) was ≥ 256 µg/mL, the MIC (E. faecalis ATCC 51575) was ≥ 256 µg/mL and the MIC (E. faecalis BAA-2365) was ≥ 256 µg/mL. It also gave an MIC (E. faecalis ATCC 29212) of 2 µg/mL (≈ 1.38 µM), an MIC [14] of 1 µg/mL (≈ 0.69 µM) and an MIC (S. aureus ATCC25923) of 1 µg/mL (≈ 0.69 µM). For the same compound, the MIC (S. aureus ATCC 29213) was 1 µg/mL (≈ 0.69 µM).

From patent US10906940B2, “Antimicrobial peptides, pharmaceutical compositions, and methods of use thereof” (priority 2014, dated 2021)
